Source: patent publication US10526325B2, “Bicyclic heterocyclic derivatives” (Merck Patent GmbH, priority 2015, dated 2020)
Where two headings read alike, the source gives them in different places.

What was measured:
PDHK2 = PDHK2 (Homo sapiens (Human), UniProt Q15119); experiment: Biochemical activity testing of PDHK2: PDC inactivation assay; details: human rec PDHK2, porcine heart PDC, 5 μM ATP, read-out: IC50 PDHK2 (enzyme assay)
Source text: Biochemical Activity Testing of PDHK2: PDC Inactivation Assay
The biochemical activity assay for PDHK2 is based on the inactivation of PDC through phosphorylation by PDHK2. The assay is run in two steps: the enzymatic PDHK2 reaction in which isolated PDC is phosphorylated by PDHK2 with ATP as co-substrate and the PDC activity assay in which pyruvate and NAD are converted to acetyl-CoA and NADH. The PDC activity correlates to the increase in NADH and thereby is detectable directly via the increasing fluorescence signal (Exc 340 nm, Em 450 nm). Inhibition of PDHK2 results in a lower phosphorylation status and thereby a less decrease in activity of PDC and a stronger increase in NADH fluorescence signal.
The PDC inactivation assay is performed in Greiner 384-well microtiter plates and is used for high throughput screen. 4 μl of PDHK2 (human, rec, Carna Bioscience, 10 ng/μl-137 nM final concentration) and PDC (isolated from porcine heart, Sigma-Aldrich, 20 mU/ml final concentration) are incubated in the absence or presence of the test compound (10 dilution concentrations) for 30 min at room temperature in kinase buffer (15 mM potassium phosphate buffer, pH 7.0, 60 mM KCl, 1.5 mM DTT, 2.5 mM MgCl2, 0.0125% (w/v) BSA, 0.125% Pluronic F-68). The kinase reaction is started by the addition of 4 μl ATP substrate solution (fc 5 μM in kinase buffer). After 30 min incubation at 37° C. 40 μl of PDC reaction solution (100 mM Tris/HCl, pH 7.8, 0.5 mM EDTA, 1 mM MgCl2, 50 mM NaF, 0.25 mM Coenzyme A, 5 mM pyruvate, 1 mM NAD, 5 mM DTT, 1 mM thiamine pyrophosphate) is added. The first fluorescence measurement is performed on a Perkin Elmer Envision (Exc 340 nm, Em 450 nm). The reaction is incubated for 45 min at room temperature. Afterwards a second fluorescence measurement is performed and the PDC activity is calculated by the difference between both measurements. As full value for the PDHK2 assay the inhibitor-free PDHK2 reaction is used. The pharmacological zero value used is DCA (Sigma-Aldrich) in a final concentration of 3 mM. The inhibitory values […] were determined using either the program Symyx Assay Explorer® or Condosseo® from GeneData.

human PDHK2 (12-407) = human PDHK2 (12-407) (Homo sapiens (Human), UniProt Q15119); experiment: Isothermal titration calorimetry (ITC) binding; details: ITC at 30° C., pH 7.5
Method: Isothermal Titration Calorimetry
ITC measurements were performed with a VP-ITC micro calorimeter (Microcal, LLC/GE Healthcare Bio-Sciences Aft Uppsala, Sweden). In general titrations were performed by titrating the protein (50 μM) to the test compound (5 μM) in 12 μl injections. All binding experiments were carried out at 30° C. In general the test compounds were diluted form DMSO stock solutions into the measurement buffer with a maximum final concentration of 1% DMSO. The measurement buffer was 20 mM HEPES, 135 mM KCl, 1 mM TCEP, 2 mM MgCl2, 15 mM NaH2PO4, pH 7.5. The human PDHK2 (12-407) was produced in E. coli as his-tagged protein and purified by affinity chromatography. The tag was removed by side specific proteolysis. Before titration the protein buffer was changed to the measurement buffer containing the same DMSO concentration as the test compound dilution. ITC data analysis was performed using Origin 7 calorimetry software from the same supplier. For most measurements a binding model of one binding site was assumed. According to the applied mathematical model it is possible to calculate the binding constant (KA), the observed binding enthalpy (ΔH^obs) as well as the stoichiometry (N) of the formed complex.
Preceding analysis the raw data was corrected for the heats of dilution by extrapolating from the saturation value from the end of titration. In order to allow for direct comparison between the respective experimental series and protein preparations the protein concentration was corrected by referencing titrations to a well behaved standard inhibitor. The apparent stoichiometry values defined the fraction of binding competent protein and compensated for relative errors in protein concentration measurements. This corrected protein concentration was used to set up ITC experiment series with test compounds. Any deviations from ideal 1:1 stoichiometry observed here were attributed to errors in compound concentration. This nominal compound concentration was corrected as well to achieve 1:1 stoichiometry in the fit.

[1] = test system: PDH-E1alpha (pSer300) in HEK293T cells; experiment: Cellular immunofluorescence assay, PDH-E1alpha (pSer300) in HEK293T cells; type: cell-based, human; details: 5 hours incubation, anti-PDH-E1alpha (pSer300) immunofluorescence, read-out: IC50 (cell data)
Method: Cellular Assay for Determination of Compound Activities
Compound activities were determined in a cellular immunofluorescence assay. Human HEK293T cells were seeded into black 384-well plates with clear bottom and grown overnight.
Next day, test compounds were added to the wells and the plates incubated for 5 hours. Following this, cells were fixed with formaldehyde, permeabilised and blocked. The primary antibody, Anti-PDH-E1alpha (pSer300), AP1064 (Merck Millipore) was added and incubated overnight in the plate wells. Next, cells were washed and the secondary antibody, Alexa Fluor 488, goat anti-rabbit ab (A-11008, Invitrogen) was added together with Hoechst 33258 (H3569, Invitrogen) and incubated for 1 hour in the plate wells. Finally, cells were washed and the plates were measured on the laser scanning cytometer acumen hci (TTpLabtech).
The raw data were normalized against a pharmacological inhibitor control and dose response curves were generated by plotting the percent effect values using the software package Genedata screener (Genedata).

IC50 (PDHK2)	Kd (human PDHK2 (12-407))	SMILES	IC50 ([1]; Homo sapiens, HEK-293T)	IC50 [1]
< 300 nM	< 300 nM	CC1CN(C(=O)[C@@](C)(O)C(F)(F)F)Cc2cnn(-c3ccc(F)cc3)c21 (stereo partly drawn) [Compound A12, (2R)-3,3,3-trifluoro-1-[1-(4-fluorophenyl)-7-methyl-6,7-dihydro-4H-pyrazolo[4,3-c]pyridin-5-yl]-2-hydroxy-2-methyl-propan-1-one]	< 300 nM	
< 300 nM	< 300 nM	C[C@@H]1CN(C(=O)[C@@](C)(O)C(F)(F)F)Cc2cnn(-c3ccc(F)cc3)c21 [Compound A14, (R)-3,3,3-Trifluoro-1-[(R)-1-(4-fluoro-phenyl)-7-methyl-1,4,6,7-tetrahydro-pyrazolo[4,3-c]pyridin-5-yl]-2-hydroxy-2-methyl-propan-1-one]	< 300 nM	
< 300 nM	< 300 nM	CC1CN(C(=O)[C@@](C)(O)C(F)(F)F)Cc2cnn(-c3ccccc3)c21 (stereo partly drawn) [Compound A16, (R)-3,3,3-Trifluoro-2-hydroxy-2-methyl-1-(7-methyl-1-phenyl-1,4,6,7-tetra-hydro-pyrazolo[4,3-c]pyridin-5-yl)-propan-1-one]	< 300 nM	
< 300 nM	< 300 nM	C[C@@H]1CN(C(=O)[C@@](C)(O)C(F)(F)F)Cc2cnn(-c3ccccc3)c21 [Compound A18, (R)-3,3,3-Trifluoro-2-hydroxy-2-methyl-1-((R)-7-methyl-1-phenyl-1,4,6,7-tetrahydro-pyrazolo[4,3-c]pyridin-5-yl)-propan-1-one]	< 300 nM	
< 300 nM	< 300 nM	C[C@@H]1CN(C(=O)[C@@](C)(O)C(F)(F)F)Cc2cnn(C(C)(C)C)c21 [Compound A22, (R)-1-((R)-1-tert-Butyl-7-methyl-1,4,6,7-tetrahydro-pyrazolo[4,3-c]pyridin-5-yl)-3,3,3-trifluoro-2-hydroxy-2-methyl-propan-1-one]	< 300 nM	
< 300 nM	< 300 nM	C[C@@H]1CN(C(=O)[C@@](C)(O)C(F)(F)F)Cc2cnn(-c3ccccc3F)c21 [Compound A24, (R)-3,3,3-Trifluoro-1-[(R)-1-(2-fluoro-phenyl)-7-methyl-1,4,6,7-tetrahydro-pyrazolo[4,3-c]pyridin-5-yl]-2-hydroxy-2-methyl-propan-1-one]	< 300 nM	
300 to 3000 nM	< 300 nM	C[C@@H]1CN(C(=O)[C@@](C)(O)C(F)(F)F)Cc2cn[nH]c21 [Compound A28, (R)-3,3,3-Trifluoro-2-hydroxy-2-methyl-1-((R)-7-methyl-1,4,6,7-tetrahydro-pyrazolo[4,3-c]pyridin-5-yl)-propan-1-one]	3000 to 50000 nM	
< 300 nM	< 300 nM	C[C@@H]1CN(C(=O)[C@@](C)(O)C(F)(F)F)Cc2cnn(-c3ncccc3F)c21 [Compound A32, (R)-3,3,3-Trifluoro-1-[(R)-1-(3-fluoro-pyridin-2-yl)-7-methyl-1,4,6,7-tetrahydro-pyrazolo[4,3-c]pyridin-5-yl]-2-hydroxy-2-methyl-propan-1-one]	< 300 nM	
< 300 nM	< 300 nM	C[C@@H]1CN(C(=O)[C@@](C)(O)C(F)(F)F)Cc2cnn(C3CCC(O)CC3)c21 (stereo partly drawn) [Compound A38, (R)-3,3,3-Trifluoro-2-hydroxy-1-[(R)-1-(4-hydroxy-cyclohexyl)-7-methyl-1,4,6,7-tetrahydro-pyrazolo[4,3-c]pyridin-5-yl]-2-methyl-propan-1-one]	< 300 nM	
< 300 nM	< 300 nM	C[C@@H]1CN(C(=O)[C@@](C)(O)C(F)(F)F)Cc2cnn(-c3ccc(F)cn3)c21 [Compound A40, (R)-3,3,3-Trifluoro-1-[(R)-1-(5-fluoro-pyridin-2-yl)-7-methyl-1,4,6,7-tetrahydro-pyrazolo[4,3-c]pyridin-5-yl]-2-hydroxy-2-methyl-propan-1-one]	< 300 nM	

Second part, the compound before the results:

SMILES	IC50 (PDHK2)	Kd (human PDHK2 (12-407))	IC50 ([1]; Homo sapiens, HEK-293T)	IC50 [1]
C[C@H]1CN(C(=O)[C@@](C)(O)C(F)(F)F)Cc2cnn(-c3ccc(Cl)cc3)c21 [Compound A11, (R)-1-[(S)-1-(4-Chloro-phenyl)-7-methyl-1,4,6,7-tetrahydro-pyrazolo[4,3-c]pyridin-5-yl]-3,3,3-trifluoro-2-hydroxy-2-methyl-propan-1-one]	3000 to 50000 nM	300 to 3000 nM	300 to 3000 nM	
CC1CN(C(=O)[C@@](C)(O)C(F)(F)F)Cc2cn(-c3ccc(F)cc3)nc21 (stereo partly drawn) [Compound A13, (2R)-3,3,3-trifluoro-1-[2-(4-fluorophenyl)-7-methyl-6,7-dihydro-4H-pyrazolo[4,3-c]pyridin-5-yl]-2-hydroxy-2-methyl-propan-1-one]	300 to 3000 nM	300 to 3000 nM	3000 to 50000 nM	
CC1CN(C(=O)[C@@](C)(O)C(F)(F)F)Cc2cn(-c3ccccc3)nc21 (stereo partly drawn) [Compound A17, (R)-3,3,3-Trifluoro-2-hydroxy-2-methyl-1-(7-methyl-2-phenyl-2,4,6,7-tetra-hydro-pyrazolo[4,3-c]pyridin-5-yl)-propan-1-one]	300 to 3000 nM	300 to 3000 nM	300 to 3000 nM	
C[C@@H]1CN(C(=O)[C@@](C)(O)C(F)(F)F)Cc2cnn(-c3ccc(F)cc3F)c21 [Compound A20, (R)-1-[(R)-1-(2,4-Difluoro-phenyl)-7-methyl-1,4,6,7-tetrahydro-pyrazolo[4,3-c]pyridin-5-yl]-3,3,3-trifluoro-2-hydroxy-2-methyl-propan-1-one]	< 300 nM	< 300 nM	< 300 nM	
C[C@@H]1CN(C(=O)[C@@](C)(O)C(F)(F)F)Cc2cnn(-c3ncc(F)cc3F)c21 [Compound A34, (R)-1-[(R)-1-(3,5-Difluoro-pyridin-2-yl)-7-methyl-1,4,6,7-tetrahydro-pyrazolo[4,3-c]pyridin-5-yl]-3,3,3-trifluoro-2-hydroxy-2-methyl-propan-1-one]	< 300 nM	< 300 nM	< 300 nM	
COc1ncc(F)c(-n2ncc3c2[C@@H](C)CN(C(=O)[C@@](C)(O)C(F)(F)F)C3)n1 [Compound A37, (R)-3,3,3-Trifluoro-1-[(S)-1-(5-fluoro-2-methoxy-pyrimidin-4-yl)-7-methyl-1,4,6,7-tetrahydro-pyrazolo[4,3-c]pyridin-5-yl]-2-hydroxy-2-methyl-propan-1-one]	300 to 3000 nM	300 to 3000 nM	3000 to 50000 nM	
C[C@@](O)(C(=O)N1CCc2ncn(-c3ccccc3)c2C1)C(F)(F)F [Compound A43, (R)-3,3,3-Trifluoro-2-hydroxy-2-methyl-1-(3-phenyl-3,4,6,7-tetrahydro-imidazo[4,5-c]pyridin-5-yl)-propan-1-one]	300 to 3000 nM	< 300 nM		300 to 3000 nM
